# In patent US20240287062A1, “NAPHTHYRIDONE COMPOUNDS FOR INHIBITION OF RAF KINASES AND/OR BCR-ABL TYROSINE KINASES” (Enliven Inc., priority 2021, published 2024):
# Where two headings read alike, the source gives them in different places.
# What was measured:
# Format in all cases: cell-based
# K562 cells = assay: Cell viability assay (CellTiter Glo); details: K562 cells grown as in Example B1, read-out: BRAF Cytotoxicity (IC50, nM) K562
# Experimental: K562 cells, cultured in Iscove's Modified Dulbecco's Media (IMDM) supplemented with 10% FBS, were harvested at 50-80% confluency and plated at 2,000 cells per well in 384-well tissue culture plates. A subset of wells contained media only (low control, LC). Compounds were serially diluted in DMSO. 40 nL of compound or DMSO only (high control, HC) were added to each well using an Echo 550 liquid handler (Labcyte). The plates were placed in a 37° C. incubator with 5% CO2 for 72 hours. Cell viability was measured using a CellTiter-Glo luminescent cell viability assay (Promega), which allows for relative quantification of metabolically active cells by luminescence-based measurements of intracellular ATP concentrations. Briefly, plates were removed from the incubator and equilibrated for 15 minutes at room temperature prior to the addition of 40 μL of CellTiter-Glo reagent. Plates were then incubated for 30 minutes at room temperature. Luminescence was measured using an EnSpire plate reader (Perkin Elmer). As noted above, luminescence values from wells with DMSO only or media without cells were used as high and low controls (HC and LC), respectively. Normalized percent viability was calculated as follows: percent viability=100×(LumSample−LumLC)/(LumHC−LumLC). IC50 values were calculated using the XLFit software.
# (§1) Cell viability was measured in the following MAPK pathway mutant cancer cell lines: A375 (BRAF V600E), HepG2 (NRAS Q61L), SK-MEL-30 (NRAS Q61K), and OCI-AML-2 (MBNL1-CRAF fusion). Cell viability was also measured in K562 cells.
# (§2) Table 6 provides the growth media, number of cells seeded per well and drug treatment times for the each cell line. K562 cells were grown as described in Example B1 above.
# (§3) Compounds were dissolved in DMSO and serially diluted. Serially-diluted compound or a DMSO only control (high control, “HC”) was added to the plated cells in each well. Compounds were tested at concentrations of about 10 μM to 0.51 nM, using three-fold dilutions. The final proportion of DMSO never exceeded 0.1%.
# (§4) Plates were placed in a 37° C., […] incubator for the indicated treatment times (Table B1). Plates were then removed from the incubator and equilibrated for 15 minutes at room temperature. 40 μl of CellTiter Glo reagent (Promega) was added to measure the relative level of metabolically active cells by quantifying intracellular ATP concentrations. Plates were incubated for 30 minutes at room temperature, and luminescence was measured. Percent viability was normalized to a vehicle control only using the following formula: 0 viability=100×(LumSample−LumLC)/(LumHC−LumLC). Graphical curves were fitted using a nonlinear regression model with a sigmoidal dose response.
# SK-MEL-30 (NRAS Q61K) = assay: Cell viability assay (CellTiter Glo); details: SK-MEL-30, 750 cells per well, read-out: BRAF Cytotoxicity (IC50, nM) SK-MEL-30
# Experimental: as §1
# (§5) A375, HepG2, SK-MEL-30 and OCI-AML-2 cells were grown in the appropriate growth medium as described in Table B2 below, and harvested at 50-80% confluence. Cells were counted and seeded at their appropriate density (see Table B1) in a 384-well plate (Corning 3570). A375, HepG2 and SK-MEL-30 were allowed to adhere overnight prior to treatment and the OCI-AML-2 were treated immediately for the indicated drug treatment times (Table 6).
# as §2, §3, §4
# A375 (BRAF V600E) = assay: Cell viability assay (CellTiter Glo)
# Experimental: as §1, §5, §2, §3, §4
# [1] = tested on: OCI-AML-2 (MBNL1-CRAF fusion); assay: Cell viability assay (CellTiter Glo); details: OCI-AML-2, 1000 cells per well, read-out: BRAF Cytotoxicity (IC50, nM) OCI-AML-2
# Experimental: as §1, §5, §2, §3, §4
# HepG2 (NRAS Q61L) = assay: Cell viability assay (CellTiter Glo); details: HepG2, 750 cells per well, read-out: BRAF Cytotoxicity (IC50, nM) HEPG2
# Experimental: as §1, §5, §2, §3, §4
# [2] = tested on: phosphorylated ERK (pERK); assay: Detection of phosphorylated ERK (pERK), AlphaLISA in A375 cells; details: four hours incubation, inhibition of ERK phosphorylation, read-out: PERK ELISA (IC50)
# Experimental: A375 cells were counted and seeded at 10,000 cells/well in 384 well plates (Corning 3764) and allowed to adhere overnight.
# Compounds were dissolved and serially diluted in DMSO. The compounds were then added, mixed, and incubated for four hours at 37° C., 5% CO2. Compounds were added using four-fold dilutions at final concentrations ranging from 10 μM to 0.01 nM. DMSO only and 10 uM staurosporine were added as high and low controls.
# Following the four-hour incubation with compounds, cell lysates were prepared and AlphaLISA assay measuring phosphorylated ERK was performed. Media was removed using the Apricot Designs pipettor. Lysis buffer was made from 1× AlphaLISA SureFire Assay Kit (AlphaLISA SureFire Ultra pERK 12 (Thr202/Tyr204) ALSU-PERK-A50K) lysis buffer with protease and phosphatase inhibitors. Cells were lysed by adding 10 uL to all the wells and mixed for 40 minutes on a plate shaker. 10 uL cell lysate was transferred to a new Optiplate (PerkinElmer 6007290) and incubated with 5 uL 1× acceptor mix for 2 hours in the dark. 5 uL of 1× donor mix was added to all wells and mixed by shaking followed by overnight incubation in the dark.
# pERK AlphaLISA signal was read on the Envision using standard AlphaLISA settings. Percent inhibition of ERK phosphorylation was calculated by % Inhibition=100×(LumHC−LumSample)/(LumHC−LumLC). The low and high controls (LC/HC) are generated from lysate from wells with cells treated with DMSO or […] Staurosporine (BioAustralis, cat #BIA-S1086), […]. IC50 values were calculated by fitting the Curve using XLfit (v5.3.1.3), equation 201: Y=Bottom+(Top−Bottom)/(1+10^((Log IC50−X)*HillSlope)).
# [3] = Homo sapiens, A-375, 72 h, A375, 250 cells seeded per well, read-out: BRAF Cytotoxicity (IC50, nM) A375 (250 cells)
# [4] = Homo sapiens, A-375, 72 h, A375, 1000 cells seeded per well, read-out: BRAF Cytotoxicity (IC50, nM) A375 (1000 cells)
# [5] = A375, 250 cells seeded per well, 72 hours, read-out: BRAF Cytotoxicity (IC50, nM) A375 (250 cells)
# [6] = A375, 1000 cells seeded per well, 72 hours, read-out: BRAF Cytotoxicity (IC50, nM) A375 (1000 cells)
Compound,IC50 (K562 cells; Homo sapiens),"IC50 (SK-MEL-30 (NRAS Q61K); Homo sapiens, SK-MEL-30, 120 h)",IC50 (A375 (BRAF V600E); [3]),"IC50 ([1]; Homo sapiens, OCI-AML2, 72 h)","IC50 (HepG2 (NRAS Q61L); Homo sapiens, HepG2, 120 h)",IC50 [2],IC50 (A375 (BRAF V600E); [4]),"IC50 ([2]; Homo sapiens, A-375, 4 h)",IC50 (SK-MEL-30 (NRAS Q61K); 120 hours),IC50 (A375 (BRAF V600E); [5]),IC50 (A375 (BRAF V600E); [6]),IC50 ([1]; 72 hours),IC50 (HepG2 (NRAS Q61L); 120 hours),IC50 (K562 cells)
"CCCC(O)c1cc(C)c(-c2cc3cnc(NC(C)=O)cc3n(C)c2=O)cn1 (single isomer, unassigned) [Example S67, Enantiomer A, N-(3-{6-[1-hydroxybutyl]-4-methylpyridin-3-yl}-1-methyl-2-oxo-1,6-naphthyridin-7-yl)acetamide]",9480 nM,974 nM,215 nM,1390 nM,252 nM,0.00723 µM,–,–,–,–,–,–,–,–
"CC[C@H](O)c1cc(C)c(-c2cc3cnc(NC(=O)C4CC4)cc3n(C)c2=O)cn1 [Compound 69, N-(3-[6-[(1S)-1-hydroxypropyl]-4-methylpyridin-3-yl]-1-methyl-2-oxo-1,6-naphthyridin-7-yl)cyclopropanecarboxamide]",496 nM,517 nM,372 nM,485 nM,107 nM,–,354 nM,0.0431 µM,–,–,–,–,–,–
"CC[C@H](O)c1cc(C)c(-c2cc3cnc(NC(=O)[C@H]4C[C@H]4F)cc3n(C)c2=O)cn1 [Compound 108, (1R,2R)-2-fluoro-N-(3-(6-((S)-1-hydroxypropyl)-4-methylpyridin-3-yl)-1-methyl-2-oxo-1,2-dihydro-1,6-naphthyridin-7-yl)cyclopropane-1-carboxamide]",1980 nM,311 nM,422 nM,309 nM,88.7 nM,–,308 nM,0.0174 µM,–,–,–,–,–,–
"CCCC(=O)c1cc(C)c(-c2cc3cnc(NC(=O)[C@@H]4C[C@@H]4F)cc3n(C)c2=O)cn1 [Compound 152, (1S,2S)—N-(3-(6-butyryl-4-methylpyridin-3-yl)-1-methyl-2-oxo-1,2-dihydro-1,6-naphthyridin-7-yl)-2-fluorocyclopropane-1-carboxamide]",534 nM,585 nM,116 nM,412 nM,257 nM,–,–,0.00899 µM,–,–,–,–,–,–
"CCC(O)c1cc(C)c(-c2cc3cnc(NC(C)=O)cc3n(C)c2=O)cn1 (single isomer, unassigned) [Example S59, Enantiomer A, N-(3-(6-(1-hydroxypropyl)-4-methylpyridin-3-yl)-1-methyl-2-oxo-1,2-dihydro-1,6-naphthyridin-7-yl)acetamide]",> 10000 nM,–,–,–,–,0.0785 µM,–,–,–,–,–,–,–,–
"CCCC(O)c1cc(C)c(-c2cc3cnc(NC(=O)[C@H]4C[C@H]4F)cc3n(C)c2=O)cn1 (single isomer, unassigned) [Example S43, Isomer B]",–,–,–,–,–,0.0147 µM,–,–,> 6150 nM,335 nM,189 nM,2710 nM,843 nM,–
"CCC(=O)c1cc(C)c(-c2cc3cnc(NC(=O)[C@H]4C[C@H]4F)cc3n(C)c2=O)cn1 [Compound 148, (1R,2R)-2-fluoro-N-(1-methyl-3-(4-methyl-6-propionylpyridin-3-yl)-2-oxo-1,2-dihydro-1,6-naphthyridin-7-yl)cyclopropane-1-carboxamide]",2640 nM,–,–,–,–,–,–,0.0193 µM,–,–,–,–,–,–
"CCC(O)c1cc(C)c(-c2cc3cnc(NC(=O)[C@@H]4C[C@@H]4F)cc3n(C)c2=O)cn1 (single isomer, unassigned; isomer a) [Example S40, Isomer A]",–,–,–,–,–,0.0474 µM,–,–,446 nM,–,492 nM,496 nM,211 nM,1230 nM
"CCCC(O)c1cc(C)c(-c2cc3cnc(NC(=O)[C@H]4C[C@H]4F)cc3n(C)c2=O)cn1 (single isomer, unassigned) [Example S43, Isomer A]",1690 nM,–,–,–,–,–,–,0.00801 µM,399 nM,152 nM,52.1 nM,457 nM,82.1 nM,–
"CCC(O)c1cc(C)c(-c2cc3cnc(NC(=O)[C@H]4CC4(F)F)cc3n(C)c2=O)cn1 (single isomer, unassigned) [Example S49, Isomer B]",733 nM,–,74.9 nM,–,–,0.00864 µM,–,–,103 nM,–,–,153 nM,12.6 nM,–
